Patent US11524966B1 (Valo Early Discovery, Inc., priority 2017, dated 2022)

Experiments:
[1] = target: T1, USP25 (USP25-His6, Boston Biochem E-546) (Homo sapiens, UniProt Q9UHP3); experiment: Ubiquitin-Rhodamine 110 Assay for USP25 Activity, Example A-2; type: biochemical; details: Ubiquitin-Rhodamine 110 assay, Example A-2; read-out: USP25 A-2 IC50 range
T1 construct: His6; purchased Boston Biochem E-546
T1 sequence (Q9UHP3 1-1055): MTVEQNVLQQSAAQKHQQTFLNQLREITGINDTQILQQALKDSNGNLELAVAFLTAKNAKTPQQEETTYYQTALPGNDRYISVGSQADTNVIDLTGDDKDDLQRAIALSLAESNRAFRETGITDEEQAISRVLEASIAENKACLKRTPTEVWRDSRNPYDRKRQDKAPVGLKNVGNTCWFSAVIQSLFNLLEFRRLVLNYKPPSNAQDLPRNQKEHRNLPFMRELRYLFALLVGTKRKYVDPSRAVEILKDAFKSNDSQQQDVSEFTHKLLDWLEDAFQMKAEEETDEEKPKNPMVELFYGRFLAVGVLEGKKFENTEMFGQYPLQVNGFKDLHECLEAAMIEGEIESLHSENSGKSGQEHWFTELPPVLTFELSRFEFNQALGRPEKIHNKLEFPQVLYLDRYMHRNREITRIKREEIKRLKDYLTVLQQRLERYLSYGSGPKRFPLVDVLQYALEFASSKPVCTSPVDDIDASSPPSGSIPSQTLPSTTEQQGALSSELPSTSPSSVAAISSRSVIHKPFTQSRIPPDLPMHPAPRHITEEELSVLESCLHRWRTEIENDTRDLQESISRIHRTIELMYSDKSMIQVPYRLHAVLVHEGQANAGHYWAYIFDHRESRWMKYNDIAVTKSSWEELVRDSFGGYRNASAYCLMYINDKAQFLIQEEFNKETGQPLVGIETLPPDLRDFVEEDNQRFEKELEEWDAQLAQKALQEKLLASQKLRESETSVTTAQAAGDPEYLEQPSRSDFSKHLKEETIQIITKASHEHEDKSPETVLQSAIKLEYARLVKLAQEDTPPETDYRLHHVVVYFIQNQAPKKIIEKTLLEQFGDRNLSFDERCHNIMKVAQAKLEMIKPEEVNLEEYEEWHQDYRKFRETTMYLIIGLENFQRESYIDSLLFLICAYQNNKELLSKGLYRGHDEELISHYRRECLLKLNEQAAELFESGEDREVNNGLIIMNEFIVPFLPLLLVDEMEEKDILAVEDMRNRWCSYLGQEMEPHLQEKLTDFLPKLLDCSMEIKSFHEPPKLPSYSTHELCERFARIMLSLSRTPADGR
Description: The assay was performed in a final volume of 9 μL in assay buffer containing 20 mM Tris-HCl (pH 8.0, (1M Tris-HCl, pH 8.0 solution; Corning 46-031-CM)), 3 mM BME (2-Mercaptoethanol; Sigma 63689-25ML-F), 0.03% BGG (0.22 μM filtered, Sigma, G7516-25G), and 0.01% Triton X-100 (Sigma, T9284-10L). Nanoliter quantities of 10-point, 3-fold serial dilution in DMSO was pre-dispensed into 1536 assay plates (Corning, #3724BC) for a final test concentration of 25 μM to 1.3 nM, top to lowest dose, respectively. Enzyme USP25, construct USP25-His6, (Boston Biochem E-546). Concentration and incubation times were optimized for the maximal signal-to-background while maintaining initial velocity conditions at a fixed substrate concentration. The final concentration of the enzyme in the assay was 75 pM. Final substrate (Ub-Rh110; Ubiquitin-Rhodamine 110, R&D Systems #U-555) concentration was 25 nM with [Ub-Rh110]<<Km. 3 μL of 2× enzyme was added to assay plates (pre-stamped with compound) preincubated with […] for 30 minutes and then 3 μL of 2×Ub-Rh110 was added to assay plates. Plates were incubated for 45 minutes at room temperature before addition of 3 μL of stop solution (final concentration of 10 mM citric acid (Sigma, 251275-500G)). Fluorescence was read on the Envision (Excitation at 485 nm and Emission at 535 nm; Perkin Elmer) or on the PheraSTAR (Excitation at 485 nm and Emission at 535 nm; BMG Labtech).
IC50 values were determined by curve fitting of the standard 4 parameter logistic fitting algorithm included in the Activity Base software package: IDBS XE Designer Model 205. Data is fitted using the Levenburg Marquardt algorithm.

[2] = target: T2, USP28 (USP28-5(1-1077)-TEV-6*His; LifeSensors) (Homo sapiens, UniProt Q96RU2); experiment: Ubiquitin-Rhodamine 110 Assay for USP28 Activity, Example A-1(b); type: biochemical
T2 construct: construct USP28 (USP28-5(1-1077)-TEV-6*His; LifeSensors); TEV cleavage site (C); 6xHis (C); purchased LifeSensors
T2 sequence (Q96RU2 1-1077): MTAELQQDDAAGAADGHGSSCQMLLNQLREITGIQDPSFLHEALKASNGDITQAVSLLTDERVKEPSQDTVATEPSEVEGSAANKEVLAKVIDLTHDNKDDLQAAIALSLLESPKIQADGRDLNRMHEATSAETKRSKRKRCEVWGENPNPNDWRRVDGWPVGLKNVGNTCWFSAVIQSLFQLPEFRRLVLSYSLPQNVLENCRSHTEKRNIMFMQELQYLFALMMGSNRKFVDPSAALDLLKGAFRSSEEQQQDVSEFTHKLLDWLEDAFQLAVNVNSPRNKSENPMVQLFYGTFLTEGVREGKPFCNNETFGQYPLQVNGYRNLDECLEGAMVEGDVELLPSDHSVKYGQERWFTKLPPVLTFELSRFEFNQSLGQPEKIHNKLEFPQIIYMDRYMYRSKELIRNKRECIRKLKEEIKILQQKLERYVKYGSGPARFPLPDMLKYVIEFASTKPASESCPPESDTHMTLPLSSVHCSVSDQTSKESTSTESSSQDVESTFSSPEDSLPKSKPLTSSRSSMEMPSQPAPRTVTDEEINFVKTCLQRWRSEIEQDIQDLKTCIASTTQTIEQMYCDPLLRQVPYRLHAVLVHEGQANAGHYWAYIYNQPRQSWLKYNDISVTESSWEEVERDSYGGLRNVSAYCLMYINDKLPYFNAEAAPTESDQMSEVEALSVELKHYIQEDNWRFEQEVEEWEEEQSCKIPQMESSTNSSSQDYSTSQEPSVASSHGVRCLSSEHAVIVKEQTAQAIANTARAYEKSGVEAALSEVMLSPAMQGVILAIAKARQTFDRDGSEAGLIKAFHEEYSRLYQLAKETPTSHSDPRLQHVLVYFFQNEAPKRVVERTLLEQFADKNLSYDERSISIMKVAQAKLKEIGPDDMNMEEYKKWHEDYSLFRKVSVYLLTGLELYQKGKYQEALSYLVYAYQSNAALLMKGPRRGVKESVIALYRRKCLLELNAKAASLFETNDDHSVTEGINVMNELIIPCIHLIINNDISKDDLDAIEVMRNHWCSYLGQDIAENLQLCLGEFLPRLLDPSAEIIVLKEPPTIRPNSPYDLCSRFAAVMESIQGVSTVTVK
Description: Example A-1(b): Biochemical Assay: Ubiquitin-Rhodamine 110 Assay for USP28 Activity
Each assay was performed in a final volume of 20 μL in assay buffer containing 20 mM Tris-HCl (pH 8.0, (1M Tris-HCl, pH 8.0 solution; Corning 46-031-CM)), 2 mM CaCl2) (1M Calcium Chloride solution; Sigma #21114) 2 mM BME (2-Mercaptoethanol; Sigma 63689-25ML-F), 0.01% Prionex ([…] filtered, Sigma #G-0411), and 0.01% Triton X-100. Stock compound solutions were stored at −20° C. as 10 mM in DMSO. Up to 1 month prior to the assay, 2 mM test compounds were pre-dispensed into assay plates (Black, low volume; Corning #3820) and frozen at −20° C. Prestamped assay plates were allowed to come to room temperature on the day of the assay. For the screen, 100 nL of 2 mM was pre-dispensed for a final screening concentration of 10 μM (DMSO(fc)=0.5%). […] Plates were incubated stacked for 90 minutes at room temperature before fluorescence was read on the Envision (Excitation at 485 nm and Emission at 535 nm; Perkin Elmer) or on the PheraSTAR (Excitation at 485 nm and Emission at 535 nm; BMG Labtech).
For follow-up studies, each assay was performed in a final volume of 15 μL in assay buffer containing 20 mM Tris-HCl (pH 8.0, (1M Tris-HCl, pH 8.0 solution; Corning 46-031-CM)), 3 mM BME (2-Mercaptoethanol; Sigma 63689-25ML-F), 0.03% BGG (0.22 μM filtered, Sigma, G7516-25G), and 0.01% Triton X-100 (Sigma, T9284-10L). Nanoliter quantities of either an 8-point or 10-point, 3-fold serial dilution in DMSO was pre-dispensed into assay plates (Perkin Elmer, ProxiPlate-384 F Plus, #) for a final test concentration of either 25 μM to 11 nM or 25 μM to 1.3 nM, respectively. Enzyme USP28, construct USP28 (USP28-5(1-1077)-TEV-6*His; LifeSensors) concentration and incubation times were optimized for the maximal signal-to-background while maintaining initial velocity conditions at a fixed substrate concentration. The final concentration of the enzyme in the assay was 75 pM. Final substrate (Ub-Rh110; Ubiquitin-Rhodamine 110, R&D Systems #U-555) concentration was 25 nM with [Ub-Rh110]<<Km. 5 μL of 2× enzyme was added to assay plates (pre-stamped with compound) preincubated with USP28 for 30 minutes and then 5 μL of 2×Ub-Rh110 was added to assay plates. Plates were incubated stacked for 20 minutes at room temperature before 5 μL of stop solution was added (final concentration of 10 mM citric acid (Sigma, 251275-500G)). Fluorescence was read on the Envision (Excitation at 485 nm and Emission at 535 nm; Perkin Elmer) or on the PheraSTAR (Excitation at 485 nm and Emission at 535 nm; BMG Labtech).
For assay formats Example A-1(a), A-1(b), and A-2, data were reported as percent inhibition compared with control wells based on the following equation: % inh=1−((FLU−AveLow)/(AveHigh−AveLow)) where FLU=measured Fluorescence, AveLow=average Fluorescence of no enzyme control (n=16), and AveHigh=average Fluorescence of DMSO control (n=16). IC50 values were determined by curve fitting of the standard 4 parameter logistic fitting algorithm included in the Activity Base software package: IDBS XE Designer Model 205. Data is fitted using the Levenburg Marquardt algorithm.

[3] = Ubiquitin-Rhodamine 110 assay, format Example A-1(b)
[4] = Ubiquitin-Rhodamine 110 assay, Example A-1(b)

SMILES	USP28 A-1(b) IC50 range [2, 3]	USP28 A-1(b) IC50 range [2, 4]	further results
Cc1ccc2c(N)c(C(=O)NC3COc4cc(N5CCNCC5)ccc4C3C)sc2n1 (single isomer, unassigned) [Example 11-17]	–	–	IC50 [1]: > 2000 nM
Cc1nc2sc(C(=O)N[C@@H]3CCc4cc(N5CCNCC5)ccc4C3)c(N)c2s1 (single isomer, unassigned) [Example 11-34]	++ (0.2-2 μM)	–	–
Cc1ccc2c(N)c(C(=O)N[C@H]3CCc4c(C#N)c(N5CCNCC5)cc(F)c4C3)sc2n1 [Example 14-10, (S)-3-amino-N-(5-cyano-8-fluoro-6-(piperazin-1-yl)-1,2,3,4-tetrahydronaphthalen-2-yl)-6-methylthieno[2,3-b]pyridine-2-carboxamide]	+++ (0.05-0.2 μM)	–	–
Cc1ccc2c(N)c(C(=O)N[C@H]3COc4cc(N5CC6CCC(C5)N6)cc(F)c4C3)sc2n1 (single isomer, unassigned) [Example 1-29]	–	–	USP28 A-1(b) IC50 range ([2]; Ub-Rh110 assay, Example A-1(b)): +++ (0.05-0.2 μM)
CN[C@H]1CCN(c2ccc3c(c2)CC[C@H](NC(=O)c2sc4nc(C)cnc4c2N)C3)C1 (single isomer, unassigned) [Example 11-25]	–	++ (0.2-2 μM)	–
Cc1ccc2c(N)c(C(=O)N[C@@H]3COc4cc(N5C[C@@H]6CNC[C@H]6C5)ccc4C3)sc2n1 [Example 42, 3-amino-((S)-7-((3aS,6aS)-hexahydropyrrolo[3,4-c]pyrrol-2(1H)-yl)chroman-3-yl)-6-methylthieno[2,3-b]pyridine-2-carboxamide]	–	++ (0.2-2 μM)	–
Cc1ccc2c(N)c(C(=O)N[C@H]3COc4cc(N5CCNCC5)ccc4[C@H]3C)sc2n1 (single isomer, unassigned) [Example 11-15]	–	+ (>2 μM)	–
Cc1ccc2c(N)c(C(=O)N[C@@H]3CCc4c(C#N)c(N5CCNCC5)cc(F)c4C3)sc2n1 [Example 14-9, (R)-3-amino-N-(5-cyano-8-fluoro-6-(piperazin-1-yl)-1,2,3,4-tetrahydronaphthalen-2-yl)-6-methylthieno[2,3-b]pyridine-2-carboxamide]	+ (>2 μM)	–	–
Cc1cnc2c(N)c(C(=O)N[C@@H]3CCc4cc(N5CCNCC5)cc(F)c4C3)sc2n1 (single isomer, unassigned) [Example 11-37]	+ (>2 μM)	–	–
Cc1cnc2c(N)c(C(=O)N[C@@H]3CCc4cc(N5C[C@H]6C[C@@H]5CN6)ccc4C3)sc2n1 (single isomer, unassigned) [Example 11-32]	++ (0.2-2 μM)	–	–
Cc1ccc2c(N)c(C(=O)N[C@H]3CCc4cc(N5CC6CNCC(C5)O6)ccc4C3)sc2n1 (single isomer, unassigned) [Example 449]	–	++ (0.2-2 μM)	–
Cc1cnc2c(N)c(C(=O)N[C@H]3CCc4cc(N5CCNCC5)ccc4C3)sc2n1 (single isomer, unassigned) [Example 11-19]	–	++ (0.2-2 μM)	–
